From the supplement of paper PMC6045584
± gives the standard deviation of the averaged measurements.

Legend:
2-METHOXYESTRADIOL = compound: COc1cc2c(cc1O)CC[C@@H]1[C@@H]2CC[C@]2(C)[C@@H](O)CC[C@@H]12 [2-METHOXYESTRADIOL]; experiment: surviving fraction relative to DMSO-only wells; higher = less growth inhibition; conditions: exposure time: 5 days
Procedure, shortened: (§1)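 At 250–500 cells per well in 384-well plates, log-phase tumour cell lines were seeded and, 24 hours on, exposed continuously for five days to inhibitors at 0.5, 1, 5, 10, 50, 100, 500 and 1000 nM. Viability readout was CellTiter-Glo luminescence, reported as surviving fraction normalised to the median of DMSO-only wells.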

NUTLIN3 = compound: COc1ccc(C2=N[C@@H](c3ccc(Cl)cc3)[C@@H](c3ccc(Cl)cc3)N2C(=O)N2CCNC(=O)C2)c(OC(C)C)c1 [NUTLIN3]; experiment: as above; conditions: exposure time: 5 days
Procedure, shortened: as §1

Test System | surviving fraction (2-METHOXYESTRADIOL; 0.5 nM) | surviving fraction (2-METHOXYESTRADIOL; 1 nM) | surviving fraction (2-METHOXYESTRADIOL; 5 nM) | surviving fraction (2-METHOXYESTRADIOL; 10 nM) | surviving fraction (2-METHOXYESTRADIOL; 50 nM) | surviving fraction (2-METHOXYESTRADIOL; 100 nM) | surviving fraction (2-METHOXYESTRADIOL; 500 nM) | surviving fraction (2-METHOXYESTRADIOL; 1000 nM) | surviving fraction (NUTLIN3; 0.5 nM) | surviving fraction (NUTLIN3; 1 nM) | surviving fraction (NUTLIN3; 5 nM) | surviving fraction (NUTLIN3; 10 nM) | surviving fraction (NUTLIN3; 50 nM) | surviving fraction (NUTLIN3; 100 nM) | surviving fraction (NUTLIN3; 500 nM) | surviving fraction (NUTLIN3; 1000 nM)
SG27 HEADNECK | 1.14 ± 0.19 | 1.2 ± 0.083 | 1.04 ± 0.12 | 1.05 ± 0.081 | 1.05 ± 0.085 | 1.16 ± 0.2 | 1.09 ± 0.062 | 1.03 ± 0.079 | 1.01 ± 0.02 | 1.06 ± 0.12 | 0.998 ± 0.17 | 1.19 ± 0.19 | 0.998 ± 0.064 | 1 ± 0.062 | 0.788 ± 0.11 | 0.668 ± 0.06
SG28 HEADNECK | 1.07 ± 0.037 | 1.18 ± 0.096 | 0.94 ± 0.0042 | 1.11 ± 0.016 | 1.11 ± 0.13 | 1.06 ± 0.048 | 1.06 ± 0.066 | 1.02 ± 0.064 | 1.13 ± 0.065 | 1.03 ± 0.14 | 1.02 ± 0.12 | 1.07 ± 0.12 | 1.03 ± 0.14 | 1.02 ± 0.085 | 1.01 ± 0.11 | 0.919 ± 0.1
SG31 HEADNECK | 1.09 ± 0.23 | 1.12 ± 0.13 | 0.996 ± 0.26 | 1.09 ± 0.084 | 1 ± 0.077 | 0.949 ± 0.025 | 1.12 ± 0.13 | 0.962 ± 0.073 | 1.08 ± 0.067 | 1.05 ± 0.2 | 1.06 ± 0.12 | 0.921 ± 0.035 | 0.854 ± 0.13 | 1.11 ± 0.23 | 0.906 ± 0.038 | 0.92 ± 0.057
SG32 HEADNECK | 1.04 ± 0.1 | 0.985 ± 0.03 | 1.04 ± 0.21 | 0.96 ± 0.083 | 0.947 ± 0.059 | 0.847 ± 0.075 | 0.62 ± 0.12 | 0.34 ± 0.034 | 1.27 ± 0.11 | 1.14 ± 0.29 | 1 ± 0.13 | 1.12 ± 0.095 | 1.18 ± 0.035 | 1.31 ± 0.45 | 0.895 ± 0.29 | 0.61 ± 0.07
SG43 HEADNECK | 0.84 ± 0.071 | 0.88 ± 0.13 | 0.807 ± 0.25 | 1.04 ± 0.39 | 0.702 ± 0.091 | 0.854 ± 0.23 | 0.91 ± 0.082 | 0.847 ± 0.11 | 1.11 ± 0.1 | 0.915 ± 0.071 | 0.928 ± 0.11 | 0.772 ± 0.064 | 0.877 ± 0.14 | 0.778 ± 0.24 | 0.806 ± 0.24 | 0.565 ± 0.1
SIHA CERVIX | 0.869 ± 0.011 | 0.902 ± 0.085 | 0.952 ± 0.092 | 0.979 ± 0.057 | 0.973 ± 0.047 | 1.02 ± 0.057 | 0.719 ± 0.062 | 0.611 ± 0.072 | 1.05 ± 0.062 | 0.991 ± 0.053 | 1.01 ± 0.12 | 1.07 ± 0.071 | 1.05 ± 0.073 | 1.2 ± 0.05 | 1.11 ± 0.15 | 1.14 ± 0.11
SJSA1 BONE | 0.941 ± 0.086 | 1.68 ± 0.14 | 1.73 ± 0.12 | 1.72 ± 0.037 | 1.75 ± 0.13 | 1.77 ± 0.08 | 1.67 ± 0.043 | 1.78 ± 0.08 | 1 ± 0.048 | 0.997 ± 0.041 | 1.05 ± 0.053 | 1 ± 0.064 | 1.03 ± 0.023 | 1.04 ± 0.02 | 0.823 ± 0.011 | 0.568 ± 0.027
SKBR3 BREAST | 0.913 ± 0.033 | 0.924 ± 0.16 | 1.09 ± 0.065 | 0.956 ± 0.12 | 0.986 ± 0.079 | 0.986 ± 0.056 | 0.882 ± 0.099 | 0.548 ± 0.051 | 0.795 ± 0.15 | 1.01 ± 0.2 | 0.869 ± 0.1 | 0.844 ± 0.18 | 0.952 ± 0.14 | 0.8987 ± 0.0035 | 0.91 ± 0.029 | 0.885 ± 0.077
SNU475 LIVER | 0.989 ± 0.048 | 1.01 ± 0.032 | 0.967 ± 0.026 | 0.968 ± 0.06 | 1.02 ± 0.053 | 0.997 ± 0.059 | 0.956 ± 0.057 | 0.775 ± 0.051 | 1.02 ± 0.066 | 0.981 ± 0.017 | 0.988 ± 0.045 | 0.984 ± 0.032 | 1 ± 0.028 | 1.03 ± 0.071 | 1.021 ± 0.009 | 1 ± 0.02
SUM44 BREAST | 1.14 ± 0.32 | 1.15 ± 0.3 | 1.14 ± 0.23 | 1.12 ± 0.2 | 1.3 ± 0.4 | 1.21 ± 0.33 | 0.837 ± 0.091 | 0.53 ± 0.054 | 0.96 ± 0.028 | 0.915 ± 0.056 | 1.02 ± 0.03 | 1.04 ± 0.051 | 1.09 ± 0.055 | 1.06 ± 0.017 | 1.07 ± 0.084 | 0.964 ± 0.063
